Consider 14 molecules from PubChem BioAssay (NCI).

Where “and” joins values, the source holds several entries; their conditions need not be identical. Equal values may be shown once.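 How tested: cells in 96-well plates exposed to compound for 48 hours at five concentrations. GI50 is the concentration that inhibits growth by half. TGI is the concentration that stops growth completely.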

Experiment in all cases: NCI anticancer screen, dose series, 48 h
Experiment [1] concerns PC-3 prostate.
The subject of experiment [2] is SK-MEL-2 melanoma.
The test system of experiment [3] is OVCAR-3 ovarian.
The test system of experiment [4] is NCI-H460 lung.
The subject of experiment [5] is HOP-62 NSCLC.
For experiment [6], the system named is SF-539 CNS.
Experiment [7] has as its system NCI-H23 lung.
Experiment [8] deals with CAKI-1 renal.
For experiment [9], the system named is SNB-19 CNS.
For experiment [10], the system named is EKVX NSCLC.

Regarding `COc1cc(OC)c(/C=C/c2c3ccccc3cc[n+]2C)c(OC)c1`, the GI50 in experiment [1] is 0.943 µM; in [2], 2.64 µM; in [3] it was 1.23 µM; in experiment [4], 1.82 µM; in experiment [5] it was 3.52 µM; in experiment [6] it was 2.1 µM. Also, the GI50 was 1.29 µM in experiment [7], 18.6 µM in experiment [8] and 1.88 µM in experiment [9]. The TGI was above 37.9 µM in experiment [1]; 6.3 µM in experiment [2]; 9.78 µM in [3]; 8.83 µM in [4]; above 33.7 µM in experiment [5]; 9.17 µM in [6]. For the same molecule, the TGI in [7] was 25.8 µM; in [8], above 100 µM; in experiment [9], 25 µM.

`COc1ncc(-c2ccc3ncnc(Nc4cccc(Cl)c4)c3c2)cc1NS(=O)(=O)C1CC1`: the GI50 in [1] was above 100 µM; in [6] it was 2.87 µM; in experiment [7], 3.8 µM; in [9], 3.92 µM. For the same molecule, the TGI in experiment [1], in experiment [6], in experiment [7] and in [9] was above 100 µM throughout.

As to `Cn1cc(C2=C(c3cccc(Br)c3)C(=O)NC2=O)c2ccccc21`, the GI50 in experiment [1] is 8.53 µM; in experiment [2] it was 11.6 µM; in experiment [3], 9.51 µM; in [4], 16.9 µM; in [5], 18.3 µM; in [6] it was 12.5 µM. The GI50 is 12.5 µM in experiment [7], 9.63 µM in [8] and above 25 µM in experiment [9]. The TGI in experiment [1] is above 25 µM; in experiment [2], above 21.6 µM; in experiment [3] it was above 25 µM; in experiment [4], above 25 µM; in [5], above 25 µM; in experiment [6], above 25 µM. Besides, the TGI in [7], in [8] and in experiment [9] was above 25 µM throughout.

`CCN(Cc1ccccc1C)c1ccc(CO)c(Cl)c1`: the GI50 in experiment [1] is 12.1 µM; in [2], 4.47 µM; in [3] it was 2.13 µM; in experiment [4] it was 0.821 µM; in [5], 6.39 µM; in [6], 15 µM. Besides, the results for the GI50 in experiment [7], in [8] and in experiment [9] were 12.8 µM, 7.88 µM and 17.8 µM, respectively. Besides, the TGI amounted to 25.4 µM in experiment [1]; 18.1 µM in experiment [2]; 9.79 µM in [3]; 12.7 µM in experiment [4]; 23.7 µM in experiment [5]; 29.5 µM in experiment [6]. In addition, the TGI was 38 µM in experiment [7], 32 µM in [8] and 52.8 µM in experiment [9].

Consider `COC(=O)[C@@H](C)C[C@H](Cc1ccccc1)NC(=O)c1csc([C@@H](C[C@H](C(C)C)N(C)C(=O)[C@@H](NC(=O)[C@H]2CCCCN2C)C2CCCCC2)OC(C)=O)n1`, for which the GI50 in [1] was 0.000435 µM and 0.0025 µM; in experiment [10], 0.00278 µM; in [4], 0.000321 µM and 0.0025 µM; in experiment [5], 0.00213 µM and 0.0025 µM; in experiment [6], 0.00211 µM and 0.0025 µM; in experiment [7], 0.00079 µM and 0.0025 µM. Also, the GI50 in experiment [9] is 0.000718 µM and 0.0025 µM. Besides, the TGI was 20.9 µM in experiment [1]; above 25 µM in experiment [4]; above 25 µM in [5]; 0.00619 µM and 0.00859 µM in experiment [6]; above 25 µM in experiment [7]; above 25 µM in experiment [9].

For the molecule `COc1cc(C(=O)N2CCN(c3ncccn3)CC2)c(N)cc1OCc1ccccc1`, the GI50 in [1] was above 100 µM; in [2] it was above 100 µM; in experiment [3], 85.6 µM; in [4] it was above 100 µM; in experiment [7] it was above 100 µM; in experiment [8], 11.9 µM. In [9], the GI50 is above 100 µM. In addition, the TGI in experiment [1], in [2], in experiment [3], in experiment [4], in experiment [7] and in experiment [8] was above 100 µM each time. The TGI in experiment [9] is above 100 µM.

Consider `Cc1cc(C)c(/C=C2\C(=O)Nc3ccc(NC(=O)CCCCCCC(=O)NO)cc32)[nH]1`, for which the GI50 in experiment [1] was 0.684 µM; in experiment [2], 1.89 µM; in experiment [3] it was 0.882 µM; in [4] it was above 50.6 µM; in experiment [5], 0.485 µM; in experiment [6], 0.521 µM. The values for the GI50 in [7], in [8] and in experiment [9] were 3.79 µM, above 100 µM and 0.93 µM, respectively. Besides, the TGI in [1] is above 100 µM; in [2], 49.8 µM; in [3], above 78.2 µM; in experiment [4], above 100 µM; in [5], 9.83 µM; in experiment [6] it was above 100 µM. Besides, the TGI in experiment [7], in experiment [8] and in experiment [9] was above 100 µM each time.

Turning to `Cc1cc(C)c(NC(=O)c2sc3nc4c(cc3c2N)CN(Cc2ccccc2)CC4)c(C)c1`, the GI50 in experiment [1] is 3.13 µM; in [2], 5.59 µM; in [3], 2.32 µM; in experiment [4], 3.29 µM; in [5], 7.73 µM; in experiment [6], 2.44 µM. The GI50 in experiment [7] is 4.51 µM; in [8] it was 2.81 µM; in [9] it was 7.21 µM. The TGI was above 100 µM in experiment [1]; above 100 µM in experiment [2]; 12.6 µM in experiment [3]; 16.3 µM in experiment [4]; above 100 µM in [5]; 7.79 µM in experiment [6]. The TGI in experiment [7], in experiment [8] and in [9] was above 100 µM in each case.

As to `COc1ccc(-c2ccc(-c3ccc(C(=N)N)s3)s2)cc1`, the GI50 in experiment [1] is 0.167 µM; in experiment [2] it was 2.22 µM; in experiment [3] it was 0.194 µM; in [4], 0.192 µM; in experiment [5] it was 0.214 µM; in experiment [6], 0.188 µM. Besides, the GI50 was 0.264 µM in [7], 0.345 µM in [8] and 0.31 µM in [9]. Besides, the TGI in [1] is 0.318 µM; in experiment [2] it was 4.14 µM; in experiment [3], 0.352 µM; in experiment [4] it was 0.364 µM; in experiment [5], 0.446 µM; in experiment [6] it was 0.346 µM. For the same molecule, the TGI is 0.66 µM in experiment [7], 1.19 µM in experiment [8] and 1.41 µM in experiment [9].

Consider `[N-]=[N+]=Nc1cc(=O)n2c3c(cccc13)CCC2`, for which the TGI in experiment [1], in experiment [10], in experiment [3], in [4], in [5] and in [6] was above 100 µM throughout. This molecule gave a TGI in experiment [7] above 100 µM.

For `COc1ccc(O)c(C(=O)c2ccc(C(=O)N[C@H]3CCCNC[C@@H]3NC(=O)c3ccncc3)cc2)c1F`, the GI50 was above 21.6 µM in experiment [1]; 4.2 µM in experiment [2]; 4.3 µM in [3]; 10.5 µM in experiment [4]; 4.39 µM in [5]; 0.624 µM in experiment [6]. Also, the GI50 in [7] is 2.63 µM; in experiment [8], above 25 µM; in experiment [9], 10.4 µM. The TGI in [1] is above 25 µM; in experiment [2], above 22.4 µM; in [3], above 23 µM; in [4], above 25 µM; in [5] it was above 21.1 µM; in [6], 7.68 µM. For the same molecule, the TGI in experiment [7], in [8] and in experiment [9] was above 25 µM each time.

For the molecule `O=C(CSC1CCc2ccccc21)N/N=C/c1ccccc1O` (configuration not stated), the GI50 is 3.89 µM in experiment [1]; 5.26 µM in experiment [2]; 4.67 µM in experiment [3]; 3.4 µM in [4]; 10.8 µM in [5]; 3.03 µM in experiment [6]. In addition, the GI50 was 9.83 µM in experiment [7], 1.93 µM in [8] and 6.11 µM in experiment [9]. Further, the TGI in [1] is 75.8 µM; in experiment [2] it was 24.6 µM; in [3], 48.9 µM; in experiment [4] it was 14.6 µM; in experiment [5], above 100 µM; in experiment [6], 17.2 µM. Besides, the results for the TGI in experiment [7], in experiment [8] and in experiment [9] were above 100 µM, 12.7 µM and above 100 µM, respectively.

With `COc1c[c]([Hg][O]C(C)=O)c(OC)c(NC(=O)CC(C)=O)[c]1[Hg][O]C(C)=O`, the GI50 is 13.8 µM in experiment [2]; 19.9 µM in [10]; 16.3 µM in experiment [4]; 20 µM in experiment [5]; 12.6 µM in experiment [6]; 11.6 µM in [7]. For the same molecule, the GI50 is 2.26 µM in experiment [8] and 5.56 µM in experiment [9]. Moreover, the TGI in [2] is 28.2 µM; in experiment [10], 36.3 µM; in [3], above 21.1 µM; in [4] it was 39 µM; in experiment [5], 34.4 µM; in experiment [6] it was 28.1 µM. The figures for the TGI in experiment [7], in experiment [8] and in experiment [9] were 17.9 µM, 4.26 µM and 12.3 µM, respectively.

With `O=Cc1ccc2c(c1-c1c(C=O)ccc3c1OCO3)OCO2`, the TGI in experiment [2], in [10], in [3], in [4], in experiment [5] and in [6] was above 100 µM each time. Besides, the TGI in [7], in experiment [8] and in experiment [9] was above 100 µM in each case.
